Experimental data: US4937373A, “Substituted naphthalene carboxylic acids” (Hoffmann-La Roche Inc., priority 1988, dated 1990)

How the values were obtained:
[1] = tested on: cyclooxygenase (CO) pathway, PGE2 formation in rat peritoneal macrophages; assay: Rat peritoneal macrophage assay, in vitro: PGE2 formation (CO pathway); format: cell-based; conditions: stimulated with calcium ionophore A 23187 (5×10^-7 M), PGE2 by radioimmunoassay
Description: (§1) RAT PERITONEAL MACROPHAGE ASSAY, IN VITRO
(§2) The rat peritoneal macrophage assay measures the ability of a test compound to influence the release of arachidonic acid (AA) from phospholipid stores in the plasma membrane and the subsequent metabolism of AA by the Δ^5 -lipoxygenase (5-LO) and cyclooxygenase (CO) pathways to the final products excreted by the cells: leukotriene B4 (LTB4, from the 5-LO pathway) and prostaglandin E2 (PGE2, from the CO pathway).
(§3) Macrophages were obtained form rats by peritoneal lavaqe with phosphate buffered saline minus Ca^+2 and Mg^+2 (PBS). Cells were washed 3 times with PBS and resuspended in Delbecco's Modified Eagle medium (Gibco Laboratories) containing L-glutamine and D-glucose and supplemented with 10% fetal calf serum. Cells were counted on a Coulter ZBA cell counter and then resuspended to a concentration of 4×10^6 cells/mL. Three mL of the cell suspension were added to plastic culture dishes (3 cm), and then the cells were allowed to adhere for 90 minutes at 37° C. Dishes were washed 3 times with PBS to remove nonadherent cells. ^14 C-AA (ca. […]) were added to the cells (1 μCi/dish) and allowed to incorporate for 90 minutes. Unincorporated ^14 C-AA was removed and the cell layer was again washed 3 times with PBS. Test compounds were dissolved in DMSO and diluted in phosphate-buffered Hank's balanced salt solution to appropriate concentrations. Cells were incubated with test compounds or the solution used to dissolve the test compounds (control) for 30 minutes at 37° C. and were then stimulated with calcium ionophore A 23187 (5×10^-7 M) for 20 minutes. The extracellular fluid was removed and ^14 C radioactivity released into this fluid from AA metabolism was measured by liquid scintillation spectroscopy. The amounts of LTB4 and PGE2, were measured in the extracellular fluid by radioimmunoassay with specific antisera. The effect of a test compound or standard was calculated as a percent inhibition of the maximum effect produced in the presence of A 23187 and expressed as an inhibitory concentration 50% IC50).
(§4) This assay measures inhibition by the test compounds of the 5-LO and the CO pathways of AA metabolism and this inhibition is expressed as an IC50 for LTB4 and PGE2 formation respectively.

[2] = tested on: Δ^5 -lipoxygenase (5-LO) pathway, LTB4 formation in rat peritoneal macrophages; assay: Rat peritoneal macrophage assay, in vitro: LTB4 formation (5-LO pathway); format: cell-based; conditions: stimulated with calcium ionophore A 23187 (5×10^-7 M), LTB4 by radioimmunoassay
Description: as §1, §2, §3, §4

[3] = tested on: Rat Acetic Acid Colitis Model; assay: Acetic acid-induced colitis in rats, in vivo (myeloperoxidase accumulation); set-up: species or system rat (Sprague-Dawley)
Description: ACETIC ACID-INDUCED COLITIS IN RATS, IN VIVO
The rat acetic acid induced colitis bioassay has been described by J. E. Krawisz, et al. in Amer. J. Proc. Gastro. Col. Rec. Surg. 31: 11-18 (1980), and by P. Sharon and W. F. Stenson in Gastroenterology 88: 55-63 (1985) and 86: 453-460 (1984). Acetic acid-induced colitis is characterized by the movement of inflammatory cells into the colon, with the number of such cells in the mucosa being measured by the activity of myeloperoxidase, a marker enzyme for these cells. Positive desirable activity is indicated by a reduction in the high levels of myeloperoxidase caused by acetic acid. Male rats (Sprague-Dawley), weighing 150 to 300g, were pretreated twice daily for two days with either the vehicle (water, or dimethylsulfoxide) or the test inhibitor compound suspended in water or dissolved in dimethylsulfoxide and orally administered. On the third day, the animals were dosed the same as on the previous two days, anesthetized with metofane, and 2 ml of 2.5% acetic acid was injected by syringe into the colonic lumen, followed immediately by 3 ml of air and a rinse consisting of 3 ml of phosphate-buffered saline (the acetic acid is present in the lumen for a sufficient period to cause inflammation without producing severe necrosis or irreversible damage). The animals were administered a second dose of the test compound in the same amount about 16 hours later. 24 hours after the acetic acid treatment, the animals were sacrificed, the colonic mucosa was surgically removed and homogenized in an aqueous buffer at pH 6 with a Tissumizer or similar device and myeloperoxidase was measured in the homogenate using o-phenylenediamine as a chromagen, as described by A. Voller, D. E. Bidwell and A. Bartlett in The Enzyme Linked Immunosorbent Assay (ELISA), Zoological Soc., London 1979, pages 29-30. Control animals were pretreated with the vehicle and saline in place of acetic acid.

[4] = tested on: rat peritoneal macrophages (^14 C-arachidonic acid release); assay: Rat peritoneal macrophage assay, in vitro: ^14 C release from arachidonic acid metabolism; format: cell-based; conditions: stimulated with calcium ionophore A 23187 (5×10^-7 M), ^14 C released
Description: as §1, §2, §3, §4

[5] = biological target: T1, Δ^5 lipoxygenase from rat basophilic leukemia (RBL-1 cells) (Rattus norvegicus, UniProt P12527); assay: In vitro test for Δ^5-lipoxygenase inhibitors; format: biochemical; conditions: RBL-1 supernatant enzyme, 6.7 μM [1-^14 C]arachidonic acid, 10 min preincubation; read-out: IC50 value, Δ^5-lipoxygenase inhibition
T1 construct: the resulting supernatant fraction was used as the source of Δ^5 -lipoxygenase; endogenous in cells; host or cells: RBL-1 rat basophilic leukemia cells (supernatant of the homogenate after 49,000 g)
T1 sequence (P12527 1-673): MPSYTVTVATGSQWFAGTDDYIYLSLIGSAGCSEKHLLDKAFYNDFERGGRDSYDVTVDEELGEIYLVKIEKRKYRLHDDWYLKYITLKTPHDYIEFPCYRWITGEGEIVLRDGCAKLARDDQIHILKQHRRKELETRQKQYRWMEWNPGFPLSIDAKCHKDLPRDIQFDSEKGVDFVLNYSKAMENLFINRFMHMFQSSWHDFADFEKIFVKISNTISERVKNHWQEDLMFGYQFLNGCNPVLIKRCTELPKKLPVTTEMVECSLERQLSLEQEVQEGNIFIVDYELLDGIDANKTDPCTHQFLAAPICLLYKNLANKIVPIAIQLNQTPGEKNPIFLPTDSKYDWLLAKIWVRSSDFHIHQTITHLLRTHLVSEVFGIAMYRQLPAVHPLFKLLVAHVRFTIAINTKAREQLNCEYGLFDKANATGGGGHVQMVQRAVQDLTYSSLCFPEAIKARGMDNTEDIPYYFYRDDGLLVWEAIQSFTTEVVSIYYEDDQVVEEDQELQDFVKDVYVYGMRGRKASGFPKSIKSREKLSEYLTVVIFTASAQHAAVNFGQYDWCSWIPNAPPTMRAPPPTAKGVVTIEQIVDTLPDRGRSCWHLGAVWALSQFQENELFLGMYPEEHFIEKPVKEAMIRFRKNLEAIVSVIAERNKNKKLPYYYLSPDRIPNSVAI
Experimental: IN VITRO TEST FOR Δ^5 -LIPOXYGENASE INHIBITORS
In this procedure a compound is tested for its effect on Δ^5 lipoxygenase from rat basophilic leukemia (RBL-1 cells). The activity of this enzyme was determined by measuring the catalytic conversion of [1-^14 C]arachidonic acid to [1-^14 C-5-hydroperoxy- 6,8,11,14-eicosatetraenoic acid ([1-^14 C]-5-HPETE) which leads to the formation of the 5-hydroxy derivative ([1-^14 C]-5-HETE). The Δ^5 -lipoxygenase was derived from the supernatant fraction of lysed RBL-1 cells using a modification of the method previously described by Jakschik and Lee [Nature 287,51 (1980)]. Briefly, RBL-1 cells were lysed by homogenization in ice-cold buffer (50 mM Tris-HCl buffer. PH 7.2, containing 1 mM EDTA and 14 μM indomethacin). The homogenate was centrifuged at 4° at 49,000 g for 20 minutes and the resulting supernatant fraction was used as the source of Δ^5 -lipoxygenase. […] The ethereal extract containing [1-^14 C]-5-HETE and unreacted substrate was analyzed by silica gel TLC using isooctanemethylethyl ketone-acetic acid (100:9:1) as the developing solvent. […] The effect of an inhibitor on Δ^5 -lipoxygenase activity is determined by preincubating the enzyme for 10 minutes at 30° in the presence or absence of various concentrations of the drug prior to addition of substrate. […]

| IC50 [1] | IC50 [2] | IC50 [4] | IC50 [5] | SMILES | % Inhibition of Myeloperoxidase Accumulation ([3]; 1 mg/kg po) | % Inhibition of Myeloperoxidase Accumulation ([3]; 10 mg/kg po) |
| --- | --- | --- | --- | --- | --- | --- |
| 3000 nM | 600 nM | 1000 nM |  | CC(C(=O)O)c1ccc2cc(OCCCCCCc3cccc(O)c3O)ccc2c1 (racemic) [(rac)-6-[6-(2,3-Dihydroxyphenyl)hexyloxy]-alpha-methyl-2-naphthalene-aceticacid] |  | 88 ± 17% |
| 1000 nM | 200 nM | 900 nM | 12 nM | C[C@H](C(=O)O)c1ccc2cc(OCCCCCCc3cccc(O)c3O)ccc2c1 [(S)-6-[6-(2,3-dihydroxyphenyl)hexyloxy]-alpha-methyl-2-naphthaleneacetic acid] | 90 ± 11% |  |

The remaining lines, values behind:

| SMILES | IC50 [1] | IC50 [2] | IC50 [4] | IC50 [5] | % Inhibition of Myeloperoxidase Accumulation ([3]; 1 mg/kg po) | % Inhibition of Myeloperoxidase Accumulation ([3]; 10 mg/kg po) |
| --- | --- | --- | --- | --- | --- | --- |
| O=C(O)Cc1ccc2cc(OCCCCCCc3cccc(O)c3O)ccc2c1 [6-[6-(2,3-dihydroxyphenyl)hexyloxy]-2-naphthalene acetic acid] | 5000 nM | 900 nM | 3000 nM |  | 72 ± 8% |  |
| CCOC(=O)[C@@H](C)c1ccc2cc(OCCCCCCc3cccc(O)c3O)ccc2c1 [(S)-6-[6-(2,3-Dihydroxyphenyl)hexyloxy]-alpha-methyl-2-naphthaleneacetic acid ethyl ester] | 4000 nM | 600 nM | 3000 nM |  |  | 23 ± 5% |
| O=C(O)c1ccc2cc(OCCCCCCc3cccc(O)c3O)ccc2c1 [6-[6-(2,3-Dihydroxyphenyl)hexyloxy]-2-naphthalenecarboxylic acid] | 9000 nM | 3000 nM | 3000 nM |  | 72 ± 8% |  |
| C[C@H](C(=O)O)c1ccc2cc(OCCCCCCc3ccc(O)c(O)c3)ccc2c1 [(S)-6-[6-(3,4-dihydroxyphenyl)hexyloxy]-alpha-methyl-2-naphthaleneacetic acid] | 3000 nM | 600 nM | 1000 nM |  |  | 13 ± 2% |
